Our source for the GI50 and TGI values is PubChem BioAssay (NCI).

Test systems include MDA-MB-435; MDA-MB-231 breast; ACHN renal; SK-OV-3 ovarian; A498 renal; M14 melanoma; SK-MEL-28 melanoma; MCF7 breast; KM12 colon; HL-60(TB) leukemia.
Holding throughout (assay): NCI tumour cell line growth inhibition, 48 h

Where “and” joins values, the source holds several entries; their conditions need not be identical. Equal values may be shown once.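 Interpolation was linear, between the two tested concentrations surrounding the appropriate level; five concentrations were tested over 48 hours in 96-well plates. At the GI50, growth is halved. The concentration for full growth arrest is given as TGI.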 Some results are limits rather than exact numbers.

As to `CCN1C[C@@H](C)n2c(c(O)c3c(=O)n(Cc4ccc(F)c(Cl)c4)nc(C(=O)NC)c32)C1=O`, the GI50 in the test with MDA-MB-435 was 3.21 µM; in the test with MDA-MB-231 breast, 2.64 µM; with ACHN renal, 2850 nM; in the test on SK-OV-3 ovarian it was 3.3 µM; in the test with A498 renal, 1.43 µM; with M14 melanoma, 3640 nM. For the same compound, the values for the GI50 in the test on SK-MEL-28 melanoma, with MCF7 breast and in the test on KM12 colon were 2690 nM, 3.26 µM and 2730 nM, respectively. For the same compound, the TGI was > 100 µM with MDA-MB-435; 7.36 µM in the test with MDA-MB-231 breast; 8.87 µM in the test on ACHN renal; 9.64 µM with SK-OV-3 ovarian; 4.55 µM with A498 renal; 39.5 µM with M14 melanoma. The TGI in the test with SK-MEL-28 melanoma was determined as 7.17 µM; with MCF7 breast it was 65.7 µM; in the test on KM12 colon, 7.71 µM.

Take `CC(=O)[CH-]C(=O)c1ccccc1.CC(=O)[CH-]C(=O)c1ccccc1.CC[C@H](CCC(C)[C@H]1CCC2[C@@H]3CC=C4C[C@@H]([O-])CC[C@]4(C)C3CC[C@@]21C)C(C)C.CC[C@H](CCC(C)[C@H]1CCC2[C@@H]3CC=C4C[C@@H]([O-])CC[C@]4(C)C3CC[C@@]21C)C(C)C.Cl.[Ti+4]` (stereo partly drawn): the TGI in the test with ACHN renal, in the test on HL-60(TB) leukemia, in the test with SK-OV-3 ovarian, with A498 renal, in the test on M14 melanoma and in the test on SK-MEL-28 melanoma was > 25 µM throughout. The TGI in the test on KM12 colon is > 25 µM. Also, the GI50 in the test on SK-OV-3 ovarian and with A498 renal was > 25 µM each time.

Turning to `O=C(CCl)N1CCN(c2ccccc2)CC1`, the TGI in the test on ACHN renal is 41.1 µM; with HL-60(TB) leukemia, 41.2 µM; in the test on SK-OV-3 ovarian, > 100 µM; in the test with A498 renal, 47.2 µM; in the test on M14 melanoma it was 35.2 µM; in the test on SK-MEL-28 melanoma, 35.7 µM. Also, the TGI with MCF7 breast was 42.4 µM; in the test on KM12 colon, 37.2 µM.

Consider `CCN(CC)CCN1C(=O)c2c(c3c4cccc(Cl)c4n(C4OC(CO)C(OC)C(O)C4O)c3c3[nH]c4c(Cl)cccc4c23)C1=O` (stereo not drawn), for which the TGI is 0.217 µM in the test on MDA-MB-435, 1.12 µM with MDA-MB-231 breast and 0.199 µM with MCF7 breast. Moreover, the GI50 was < 0.1 nM in the test on ACHN renal; 309 nM and 36.6 nM in the test on HL-60(TB) leukemia; 0.565 nM and < 36.8 nM and < 14.5 nM in the test with M14 melanoma; 0.316 nM and < 23.1 nM and < 10 nM in the test on KM12 colon.

As for `Oc1ccc(I)c2cccnc12`, the TGI is > 100 µM in the test with ACHN renal; 5.76 µM in the test on HL-60(TB) leukemia; 49.5 µM with SK-OV-3 ovarian; > 100 µM with A498 renal; 25.4 µM in the test on M14 melanoma; > 100 µM with SK-MEL-28 melanoma. In the test with KM12 colon, the TGI is > 100 µM.

As for `C=CCc1cc(OC)c(O)c(C(=O)/C=C/c2ccc(OC)c(OC)c2)c1`, the TGI in the test on ACHN renal was 45.9 µM; in the test with HL-60(TB) leukemia it was 38 µM; in the test on SK-OV-3 ovarian, 64.9 µM; in the test with A498 renal, 39.7 µM; with M14 melanoma, 31.7 µM; with SK-MEL-28 melanoma, 33.6 µM. Besides, the TGI with KM12 colon turned out to be 44.9 µM.

On to `Cc1ccc2c(-c3ccnc(Nc4cccc(C(F)(F)F)c4)n3)c(-c3ccccc3)nn2n1`, for which the GI50 in the test with MDA-MB-435 is 6.77 µM; with MDA-MB-231 breast it was 3.34 µM; with ACHN renal it was 1970 nM; in the test on SK-OV-3 ovarian it was 0.597 µM; in the test with A498 renal, 5.72 µM; with M14 melanoma it was 10500 nM. Besides, the GI50 with SK-MEL-28 melanoma is > 15400 nM; in the test on MCF7 breast, 2.85 µM; with KM12 colon, 11100 nM. For the same compound, the TGI was > 25 µM with MDA-MB-435; 8.64 µM with MDA-MB-231 breast; > 25 µM in the test with ACHN renal; > 15.8 µM in the test on SK-OV-3 ovarian; > 15.4 µM in the test with A498 renal; > 17.2 µM in the test on M14 melanoma. Also, the TGI was > 25 µM with SK-MEL-28 melanoma, > 25 µM in the test with MCF7 breast and > 18.3 µM in the test on KM12 colon.

For `O=C1CC[C@@H](S(=O)(=O)c2ccccc2)[C@H](/C=C/c2ccccc2)O1`, the TGI in the test with ACHN renal, in the test with HL-60(TB) leukemia, with SK-OV-3 ovarian, with A498 renal, in the test on M14 melanoma and in the test on SK-MEL-28 melanoma was > 100 µM each time. In addition, the TGI in the test on KM12 colon was > 100 µM.

Take `Cc1ccc(/C=C(/C#N)n2nnc3cccc(F)c32)cc1`: the GI50 in the test on MDA-MB-231 breast was 0.807 µM; with ACHN renal, 579 nM; in the test on HL-60(TB) leukemia it was 295 nM; in the test with SK-OV-3 ovarian it was 0.931 µM; with A498 renal, 0.226 µM; with M14 melanoma, 287 nM. For the same compound, the GI50 was 902 nM in the test with SK-MEL-28 melanoma, 0.466 µM in the test on MCF7 breast and 332 nM with KM12 colon. Moreover, the TGI came out at 9.66 µM in the test with MDA-MB-231 breast; 4.46 µM in the test on ACHN renal; 4.42 µM with HL-60(TB) leukemia; 55.1 µM in the test with SK-OV-3 ovarian; 0.877 µM in the test on A498 renal; 22.1 µM with M14 melanoma. Besides, the results for the TGI in the test with SK-MEL-28 melanoma, in the test on MCF7 breast and in the test on KM12 colon were 18.1 µM, 16.6 µM and 5.16 µM, respectively.

`N#C/C(=C\c1ccc(O)c(O)c1)C(=O)NCc1cccc(C(F)(F)F)c1`: the GI50 with MDA-MB-435 was 4.28 µM; in the test on MDA-MB-231 breast, 5.82 µM; in the test on ACHN renal it was 5530 nM; in the test with HL-60(TB) leukemia, 4730 nM; in the test with SK-OV-3 ovarian, 24.1 µM; with A498 renal it was 10.4 µM. Further, the figures for the GI50 in the test on SK-MEL-28 melanoma, in the test with MCF7 breast and in the test with KM12 colon were 21600 nM, 19.8 µM and 4040 nM, respectively. Also, the TGI in the test with MDA-MB-435 amounted to 18 µM; with MDA-MB-231 breast, 29 µM; with ACHN renal, 35.2 µM; in the test with HL-60(TB) leukemia, 92.3 µM; with SK-OV-3 ovarian it was 75.6 µM; in the test with A498 renal, 26.9 µM. Moreover, the TGI was 72.6 µM with SK-MEL-28 melanoma, > 100 µM with MCF7 breast and 19.6 µM in the test with KM12 colon.

On to `c1ccc(C2=Nc3ccccc3N3CNN=C23)cc1`, for which the GI50 in the test with MDA-MB-435 is > 100 µM; in the test with MDA-MB-231 breast, 40.7 µM; with ACHN renal it was > 100000 nM; with SK-OV-3 ovarian, > 100 µM; with M14 melanoma, > 100000 nM; with MCF7 breast, > 100 µM. For the same compound, the GI50 in the test with KM12 colon was > 100000 nM. Besides, the TGI in the test on MDA-MB-435, with MDA-MB-231 breast, in the test with ACHN renal, with SK-OV-3 ovarian, with M14 melanoma and with MCF7 breast was > 100 µM each time. For the same compound, in the test on KM12 colon, the TGI was > 100 µM.

As to `NC(=S)N/N=C/C(O[C@@H](/C=N/NC(N)=S)CO)n1cnc2c(N)ncnc21` (stereo partly drawn), the TGI with ACHN renal, in the test on HL-60(TB) leukemia, with SK-OV-3 ovarian, with A498 renal, in the test on M14 melanoma and in the test on SK-MEL-28 melanoma was > 100 µM throughout. The TGI with KM12 colon is > 100 µM.
